Where a SMILES comes first, the peptide text is derived from it. [ ]: non-standard residue; d: D form. The star is where a group is joined. Cha = N[C@@H](CC1CCCCC1)C(=O)O; dChg = N[C@@H](C(=O)O)C1CCCCC1; pNA = O=[N+]([O-])c1ccc(N*)cc1; dAbu = CC[C@@H](N)C(=O)O; Abu = CC[C@H](N)C(=O)O; Ms = CS(=O)(=O)*
Experiments:
Format in all cases: biochemical
Thrombin = Thrombin (Homo sapiens, UniProt P00734); test: Enzymic hydrolysis of chromogenic substrate by thrombin (ΔOD/min); settings: for Activity towards Thrombin (hydrolysis rate relative to reference): equimolar doses, activity of reference CP 2 taken as 100%, hydrolysis rate as ΔOD/min
Method: (§1) The tripeptide compounds of formula I and their addition salts are useful in the determination of the enzymes involved in hemostasis. In particular, they constitute specific substrates for Factor Xa, plasmin or thrombin. The recommended method of determining these enzymes comprises bringing a given amount of a tripeptide of formula I or of one of its addition salts (at a concentration of the order of 10 mg/ml) into contact, in an appropriate aqueous liquid medium such as a buffered isotonic solution, with a test sample (diluted if appropriate) which may contain the target enzyme, for at least 0.5 h at a temperature of between RT and 40° C., especially 37° C.
(§2) The activity of the tripeptides according to the invention towards enzymes involved in hemostasis was determined by conventional methods such as those described in EP-A-0 280 160 (see page 14), the hydrolysis rate being assessed by the variation in optical density with time (ΔOD/min). The results obtained have been collated in Table II below, where the activity of reference products (CP 1 to CP 3) is specified as being equal to 100% for the sake of convenience.
(§3) Table II below summarizes the results of the comparative tests which were carried out at equimolar doses with the products of the invention and with standard substances, whose activity was taken as being equal to 100%.

Plasmin = Plasmin (Homo sapiens, UniProt P00747); test: Enzymic hydrolysis of chromogenic substrate by plasmin (ΔOD/min); settings: equimolar doses, activity of reference CP 3 taken as 100%
Method: as §1, §2, §3

Factor Xa = Factor Xa (Homo sapiens, UniProt P00742); test: Enzymic hydrolysis of chromogenic substrate by Factor Xa (ΔOD/min); settings: equimolar doses, activity of reference CP 1 taken as 100%
Method: as §1, §2, §3

Factor Xa, sequence (P00742 235-488 limits assumed): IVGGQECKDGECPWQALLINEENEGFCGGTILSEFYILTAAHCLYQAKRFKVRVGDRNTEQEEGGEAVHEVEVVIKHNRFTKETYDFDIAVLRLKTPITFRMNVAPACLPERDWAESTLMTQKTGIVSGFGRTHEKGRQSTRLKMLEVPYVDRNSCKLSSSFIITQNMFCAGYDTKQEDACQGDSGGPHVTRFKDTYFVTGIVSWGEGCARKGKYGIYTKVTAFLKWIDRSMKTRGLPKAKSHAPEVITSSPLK
Factor Xa, sequence (P00742 41-179 partner limits assumed): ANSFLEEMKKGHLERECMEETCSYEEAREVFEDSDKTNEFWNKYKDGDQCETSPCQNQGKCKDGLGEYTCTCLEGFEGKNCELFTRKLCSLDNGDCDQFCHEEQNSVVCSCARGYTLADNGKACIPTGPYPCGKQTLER
Plasmin, sequence (P00747 581-810 limits assumed, species assumed): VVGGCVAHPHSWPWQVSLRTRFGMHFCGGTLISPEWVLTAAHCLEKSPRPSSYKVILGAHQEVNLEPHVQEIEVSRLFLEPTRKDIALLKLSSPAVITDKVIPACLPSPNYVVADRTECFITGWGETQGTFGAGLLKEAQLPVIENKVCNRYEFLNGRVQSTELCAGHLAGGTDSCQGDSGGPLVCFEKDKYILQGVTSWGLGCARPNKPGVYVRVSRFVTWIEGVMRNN
Plasmin, sequence (P00747 97-580 partner limits assumed, species assumed): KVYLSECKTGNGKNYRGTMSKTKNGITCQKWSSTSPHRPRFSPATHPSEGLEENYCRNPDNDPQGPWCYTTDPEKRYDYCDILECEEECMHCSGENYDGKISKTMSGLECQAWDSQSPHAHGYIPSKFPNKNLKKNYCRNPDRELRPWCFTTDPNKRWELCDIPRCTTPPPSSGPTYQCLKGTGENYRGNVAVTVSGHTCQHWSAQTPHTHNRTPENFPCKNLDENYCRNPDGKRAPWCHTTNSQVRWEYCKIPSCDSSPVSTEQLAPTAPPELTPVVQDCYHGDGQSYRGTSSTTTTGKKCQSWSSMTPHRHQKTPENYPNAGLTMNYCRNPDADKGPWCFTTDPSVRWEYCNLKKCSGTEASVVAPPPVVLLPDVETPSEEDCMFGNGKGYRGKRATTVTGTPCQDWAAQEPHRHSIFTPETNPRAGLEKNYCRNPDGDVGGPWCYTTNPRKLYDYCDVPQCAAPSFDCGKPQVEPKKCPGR

Row | Compound | Activity towards Thrombin (hydrolysis rate relative to reference) (Thrombin) | Activity towards Plasmin (hydrolysis rate relative to reference) (Plasmin) | Activity towards Xa (hydrolysis rate relative to reference) (Factor Xa) | Sensitivity towards thrombin compared with reference substrate (Thrombin; in words, versus CP 1 as printed)
1 | CC(C)C[C@@H](NS(C)(=O)=O)C(=O)NCC(=O)N[C@@H](CCCNC(=N)N)C(=O)Nc1ccc([N+](=O)[O-])cc1 [CP 1, MeSO2D-Leu--GlyL-Arg-pNA.AcOH, reference compound] (Ms-[dL]-Gly-Arg-pNA) | 18% | 30% | 100% | 
2 | CC[C@H](NC(=O)[C@H](N)C1CCCCC1)C(=O)N[C@@H](CCCNC(=N)N)C(=O)Nc1ccc([N+](=O)[O-])cc1 [CP 2, HD-CHG-L-Abu-L-Arg-pNA.2AcOH, reference compound] (H-[dChg]-[Abu]-Arg-pNA) | 100% | 77% | 14% | 
3 | CC[C@@H](N)C(=O)N[C@@H](CC1CCCCC1)C(=O)N[C@@H](CCCNC(=N)N)C(=O)Nc1ccc([N+](=O)[O-])cc1 [CP 3, HD-Abu-L-CHA-L-Arg-pNA.2AcOH, reference compound] (H-[dAbu]-[Cha]-Arg-pNA) | 10% | 100% | 14% | 
4 | PEG200 (CO-D-CHA-Gly-L-Arg-pNA)2 [Ex. 7] | 21% | 112% | 45% | 
5 | PEG200 (D-Glu(OBzl)-L-Pro-L-Arg-pNA)2.2AcOH [Ex. 4] | 45% | 289% | 11% | 
6 | PEG200 (D-Leu-Gly-L-Arg-pNA)2.2AcOH [Ex. 6] | 23% | 188% | 105% | 
7 | PEG200 (D-Nle-L-CHA-L-Arg-pNA)2.2AcOH [Ex. 5] | 110% | 15% | 20% | more sensitive than the reference substrate CP 1
8 | PEG200 (Gly-L-Pro-L-Arg-pNA)2.2AcOH [Ex. 2] | 34% | 130% | 6% | 
9 | PEG300 (D-Leu-Gly-L-Arg-pNA)2.2AcOH [Ex. 8] | 25% | 150% | 60% | 
10 | PEG400 (D-Leu-Gly-L-Arg-pNA)2.2AcOH [Ex. 9] | 34% | 165% | 74% | 
11 | PEG600 (CO-Gly-L-Pro-L-Arg-pNA)2 [Ex. 3] | 50% | 122% | 10% | 

Reference: US5225532A, “Symmetrical bipeptides containing a polyalkylene glycol residue, method of preparation and use in the assay of proteases” (Serbio, priority 1990, dated 1993)
